Patent publication US9096571B2, “Picolinamide and pyrimidine-4-carboxamide compounds, process for preparing and pharmaceutical composition comprising the same” (SK CHEMICALS CO., LTD., priority 2010, dated 2015)

Legend:
[1] = target: T1, human-derived 11β-HSD1 (h11β-HSD1) enzyme (Homo sapiens, UniProt P28845); assay: Cell assay on 11β-HSD1 (HEK-293 cells overexpressing h11β-HSD1, cortisone to cortisol, cortisol ELISA); format: cell-based; conditions: HEK293, HEK-293 cells transfected with h11β-HSD1; for inhibition at 10 µM: 10 μM compound, read-out: hHSD1 inhibiting activity, % inhibition at 10 μM; for inhibition at 100 µM: 100 μM compound, read-out: hHSD1 inhibiting activity, % inhibition at 100 μM
T1 construct: expressed in transfected cells; host or cells: HEK-293 cells, transfected with Fugene 6
T1 sequence (P28845 whole entry): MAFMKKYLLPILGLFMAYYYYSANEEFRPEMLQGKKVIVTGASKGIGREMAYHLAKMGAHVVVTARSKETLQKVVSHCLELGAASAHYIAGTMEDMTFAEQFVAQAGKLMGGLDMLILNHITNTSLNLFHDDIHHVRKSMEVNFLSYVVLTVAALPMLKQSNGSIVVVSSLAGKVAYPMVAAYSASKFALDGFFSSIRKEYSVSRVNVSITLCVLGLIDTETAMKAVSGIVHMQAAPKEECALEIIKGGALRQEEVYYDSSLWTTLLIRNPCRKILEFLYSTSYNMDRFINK
Procedure: In order to investigate inhibitory effects of the compounds according to the present invention on activity of human-derived 11β-HSD1 (h11β-HSD1) enzyme, the following experiment was performed.
To assay the activity of the 11β-HSD1 enzyme, a recombinant DNA having h11β-HSD1 gene was introduced into an animal cell to induce overexpression of the enzyme [Arampatzis, S. J Mol. Endocrinol. […] First, HEK-293 cells were incubated using a cell incubator until they reached 70-80% confluency on a surface of the container. The recombinant DNA having h11β-HSD1 gene was mixed with Fugene 6, followed by reaction at room temperature for 1 hour. The resulting material was used to treat the cells, and thus DNA was injected into the cells. The next day, the cell supernatant was removed, followed by supplement of fresh medium, and then the cells were further incubated for 24 hours in the cell incubator.
When the cells were incubated at 70-80% confluency, the cells were detached with trypsin, and the number of cells was measured by using a Hemacytometer. The incubated liquid was diluted to contain 20,000 cells/ml, and 100 μl of the diluted liquid was plated onto each well of the 96-well plate. Following incubation for 24 hours, the compound dissolved in DMSO was diluted to 1/100 by the incubated liquid. 100 μl of the resulting compound-diluted liquid was dispensed into each well, and then incubated for 30 minutes.
The quantitative assay of cortisol generated in this reaction was performed by using a system provided from Assay Designs Inc. The resultant enzyme reactant was added to the plate coated with anti-mouse IgG, and then a specific antibody binding to the cortisol and alkaline phosphatase-bound cortisol are together input thereto, followed by reaction at room temperature for 2 hours. The contents in the wells after reaction were thrown away, and then washing was performed with a buffer solution consisting of surfactant and tris-buffered saline three times. After that, a p-nitrophenyl phosphate solution, which is a substrate for the alkaline phosphatase, was input thereto for coloring reaction, followed by reaction for 1 hour, and then the light absorbance at 405 nm was measured by using a plate reader.

11β-HSD1 = target: T2, 11β-HSD1 (Homo sapiens, UniProt P28845); conditions: healthy candidates and type 2 diabetic patients, but not the obese; cited from earlier work
T2 construct: host or cells: human subjects in vivo
T2 sequence (P28845 whole entry): as above

Molecule `COc1ccc(N2CCCN(c3cccc(C(=O)N[C@H]4C5CC6CC4C[C@](O)(C6)C5)n3)CC2)c(F)c1` [Example 124] has an inhibition at 10 µM [1] of 54% and an inhibition at 100 µM [1] of 85%.

`Cc1ccc(C2CCN(c3cccc(C(=O)N[C@H]4C5CC6CC4C[C@](O)(C6)C5)n3)CC2)nc1` [Example 98] showed an inhibition at 10 µM [1] of 38% and an inhibition at 100 µM [1] of 78%.

For `C[C@H]1CN(c2ccc(S(C)(=O)=O)cc2F)CCN1c1nccc(C(=O)N[C@H]2C3CC4CC2C[C@](O)(C4)C3)n1` [Example 284], the inhibition at 10 µM [1] was 56% and the inhibition at 100 µM [1] was 86%.

`COc1ccc(N2CCN(c3cccc(C(=O)N[C@H]4C5CC6CC4C[C@](O)(C6)C5)n3)[C@H](C)C2)nc1` [Example 118] gave an inhibition at 10 µM [1] of 64% and an inhibition at 100 µM [1] of 84%.

With `CC1CCCCN1c1cccc(C(=O)N[C@H]2C3CC4CC2C[C@](O)(C4)C3)n1` (stereo partly drawn) [Example 61] the inhibition at 10 µM [1] was 68% and the inhibition at 100 µM [1] was 83%.

With `O=C(N[C@H]1C2CC3CC1C[C@](O)(C3)C2)c1cccc(N2CCC(c3ccc(F)cn3)CC2)n1` [Example 97] the inhibition at 10 µM [1] was 58% and the inhibition at 100 µM [1] was 77%.

Work on `CNC(=O)c1cc(N2CCN(c3cccc(C(=O)N[C@H]4C5CC6CC4C[C@](O)(C6)C5)n3)[C@H](C)C2)ccc1OC` [Example 151] yielded an inhibition at 10 µM [1] of 75% and an inhibition at 100 µM [1] of 85%.

`C[C@@H]1CN(C2CC2)CCN1c1cccc(C(=O)N[C@H]2C3CC4CC2C[C@](O)(C4)C3)n1` [Example 196, 6-((R)-4-cyclopropyl-2-methylpiperazin-1-yl)-N-((E)-5-hydroxyadamantan-2-yl)picolinamide] gave an inhibition at 10 µM [1] of 64% and an inhibition at 100 µM [1] of 86%.

With `C[C@@H]1CN(CC(C)(C)O)CCN1c1cccc(C(=O)N[C@H]2C3CC4CC2C[C@](O)(C4)C3)n1` [Example 192, 6-((R)-4-(2-hydroxy-2-methylpropyl)-2-methylpiperazin-1-yl)-N-((E)-5-hydroxyadamantan-2-yl)picolinamide] the inhibition at 10 µM [1] was 41% and the inhibition at 100 µM [1] was 85%.

With `O=C(N[C@H]1C2CC3CC1C[C@](O)(C3)C2)c1cccc(N2CCC(c3ccccc3)CC2)n1` [Example 47] the inhibition at 10 µM [1] was 36% and the inhibition at 100 µM [1] was 96%.

For `C[C@@H]1CN(c2ccc(OCC(N)=O)c(Cl)c2)CCN1c1cccc(C(=O)N[C@H]2C3CC4CC2C[C@](O)(C4)C3)n1` [Example 190, 6-((R)-4-(4-(2-amino-2-oxoethoxy)-3-chlorophenyl)-2-methylpiperazin-1-yl)-N-((E)-5-hydroxyadamantan-2-yl)picolinamide], the inhibition at 10 µM [1] was 76% and the inhibition at 100 µM [1] was 89%.

`C[C@@H]1CN(S(C)(=O)=O)CCN1c1cccc(C(=O)N[C@H]2C3CC4CC2C[C@](O)(C4)C3)n1` [Example 204] showed an inhibition at 10 µM [1] of 41% and an inhibition at 100 µM [1] of 76%.

For `CC1(C)[C@@H](OC(=O)CCC(=O)O)CC[C@]2(C)[C@H]3C(=O)C=C4[C@@H]5C[C@@](C)(C(=O)O)CC[C@]5(C)CC[C@@]4(C)[C@]3(C)CC[C@@H]12` [Carbenoxolone], the “effect on insulin sensitivity” value (11β-HSD1) is listed as “improves insulin sensitivity”.

For `C[C@@H]1CN(c2ccc(C(C)(C)O)cc2)CCN1c1cccc(C(=O)N[C@H]2C3CC4CC2C[C@](O)(C4)C3)n1` [Example 173, N-((E)-5-hydroxyadamantan-2-yl)-6-((R)-4-(4-(2-hydroxypropan-2-yl)phenyl)-2-methylpiperazin-1-yl)picolinamide], the inhibition at 10 µM [1] was 81% and the inhibition at 100 µM [1] was 87%.

With `O=C(N[C@H]1C2CC3CC1C[C@](O)(C3)C2)c1cccc(N2CCc3ccccc3C2)n1` [Example 60] the inhibition at 10 µM [1] was 68% and the inhibition at 100 µM [1] was 82%.

In the case of `CS(=O)(=O)c1ccc(N2CCN(c3cccc(C(=O)N[C@H]4C5CC6CC4C[C@](O)(C6)C5)n3)CC2)cc1` [Example 77, N-((E)-5-hydroxyadamantan-2-yl)-6-(4-(4-(methylsulfonyl)phenyl)piperazin-1-yl)picolinamide], the inhibition at 10 µM [1] is reported as 73% and the inhibition at 100 µM [1] is reported as 87%.

`COc1ccc(N2CCN(c3cccc(C(=O)N[C@H]4C5CC6CC4C[C@](O)(C6)C5)n3)[C@H](C)C2)cn1` [Example 119] gave an inhibition at 10 µM [1] of 65% and an inhibition at 100 µM [1] of 81%.

`COc1ccc(N2CCN(c3nccc(C(=O)N[C@H]4C5CC6CC4C[C@](O)(C6)C5)n3)[C@H](C)C2)c(F)c1` [Example 231] gave an inhibition at 10 µM [1] of 42% and an inhibition at 100 µM [1] of 78%.

Work on `C[C@@H]1CN(c2ccc(N)nc2)CCN1c1cccc(C(=O)N[C@H]2C3CC4CC2C[C@](O)(C4)C3)n1` [Example 125, 6-((R)-4-(6-aminopyridin-3-yl)-2-methylpiperazin-1-yl)-N-((E)-5-hydroxyadamantan-2-yl)picolinamide] yielded an inhibition at 10 µM [1] of 48% and an inhibition at 100 µM [1] of 79%.

With `Cc1ccc(N2CCN(c3cccc(C(=O)N[C@H]4C5CC6CC4C[C@](O)(C6)C5)n3)CC2)nc1` [Example 88] the inhibition at 10 µM [1] was 40% and the inhibition at 100 µM [1] was 84%.

For `COc1ccc(N2CCN(c3cccc(C(=O)N[C@H]4C5CC6CC4C[C@](O)(C6)C5)n3)[C@H](C)C2)cc1C(N)=O` [Example 150], the inhibition at 10 µM [1] was 76% and the inhibition at 100 µM [1] was 87%.

With `C[C@@H]1CN(C2CCN(S(C)(=O)=O)CC2)CCN1c1cccc(C(=O)N[C@H]2C3CC4CC2C[C@](O)(C4)C3)n1` [Example 201, N-((E)-5-hydroxyadamantan-2-yl)-6-((R)-2-methyl-4-(1-(methylsulfonyl)piperidin-4-yl)piperazin-1-yl)picolinamide] the inhibition at 10 µM [1] was 40% and the inhibition at 100 µM [1] was 78%.

Molecule `O=C(N[C@H]1C2CC3CC1C[C@](O)(C3)C2)c1cccc(N2CCN(c3ccc(F)cn3)CC2)n1` [Example 87] has an inhibition at 10 µM [1] of 40% and an inhibition at 100 µM [1] of 79%.
